Experimental data reported in publication PMC9090415, “Discovery of small molecule inhibitors of Plasmodium falciparum apicoplast DNA polymerase” (Journal of Enzyme Inhibition and Medicinal Chemistry, 2022).

Target: P. falciparum apicoplast DNA polymerase (Pf-apPOL) (Plasmodium falciparum, UniProt Q8ILY1)
Test: Fluorescence-based high-throughput DNA polymerase assay (molecular beacon), primary screen and dose-response
Assay type: biochemical
Outline: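 Single-point screening used 10 µM compound with 20 nM polymerase, 20 nM hairpin substrate and 6 µM dNTPs for 90 min at 25 °C. Confirmatory titrations (2.5–80 µM) followed fluorescence at three times, and IC50 was derived from a fit including a cooperativity term n.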

[1] = 186 hits, value of the hit list (primary screen); unit not given; 90 min, 10 µM
[2] = primary screen value, 'DNA Pol' only; 90 min, 10 µM
[3] = supplemental file 2, sheet IC50 nontoxic compounds; Pf-apPOL

Sequence of P. falciparum apicoplast DNA polymerase (Pf-apPOL) (Q8ILY1 entry or part of it): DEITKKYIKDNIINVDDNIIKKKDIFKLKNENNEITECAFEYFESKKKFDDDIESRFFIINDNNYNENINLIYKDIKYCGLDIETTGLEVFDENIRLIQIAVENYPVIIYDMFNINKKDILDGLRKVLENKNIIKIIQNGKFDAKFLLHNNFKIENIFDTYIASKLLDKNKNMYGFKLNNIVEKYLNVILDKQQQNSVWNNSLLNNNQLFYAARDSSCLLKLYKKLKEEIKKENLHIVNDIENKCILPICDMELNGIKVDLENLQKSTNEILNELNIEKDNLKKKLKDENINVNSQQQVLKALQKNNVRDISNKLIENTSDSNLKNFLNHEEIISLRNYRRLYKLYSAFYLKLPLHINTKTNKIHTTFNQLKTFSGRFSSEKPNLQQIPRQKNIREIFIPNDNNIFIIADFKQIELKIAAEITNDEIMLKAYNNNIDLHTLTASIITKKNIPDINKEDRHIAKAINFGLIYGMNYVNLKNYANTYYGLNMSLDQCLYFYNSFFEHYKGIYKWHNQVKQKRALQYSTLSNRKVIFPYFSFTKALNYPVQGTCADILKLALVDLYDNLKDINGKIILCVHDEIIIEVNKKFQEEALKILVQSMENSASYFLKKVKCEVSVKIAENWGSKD

CO/N=C(\C(=O)N[C@@H]1C(=O)N2C(C(=O)[O-])=C(CSc3nc(=O)c([O-])nn3C)CSC12)c1csc(N)n1.[Na+].[Na+] (stereo partly drawn) [Molecule 83, CO/N=C(/c1csc(n1)N)\C(=O)N[C@@H]1C(=O)N2C1SCC(=C2C(=O)[O-])CSc1nc(=O)c(nn1C)[O-].[Na+].[Na+]]
DNA Pol [1]: 48
% inhibition Apo pol 10' (DRC-1; 10'; concentration 2.5): 18.7657%
% inhibition Apo pol 10' (DRC-1; 10'; concentration 5): 26.0446%
% inhibition Apo pol 10' (DRC-1; 10'; concentration 10): 38.6298%
% inhibition Apo pol 10' (DRC-1; 10'; concentration 20): 50.9335%
% inhibition Apo pol 10' (DRC-1; 10'; concentration 40): 64.2256%
% inhibition Apo pol 10' (DRC-1; 10'; concentration 80): 74.1492%
% inhibition Apol 90' (DRC-1; 90'; concentration 2.5): -5.899%
% inhibition Apol 90' (DRC-1; 90'; concentration 5): -4.018%
% inhibition Apol 90' (DRC-1; 90'; concentration 10): 2.565%
% inhibition Apol 90' (DRC-1; 90'; concentration 20): 10.9979%
% inhibition Apol 90' (DRC-1; 90'; concentration 40): 25.6327%
% inhibition Apol 90' (DRC-1; 90'; concentration 80): 43.9979%
% inhibition apPOL 180' (DRC-1; 180'; concentration 2.5): -15.6799%
% inhibition apPOL 180' (DRC-1; 180'; concentration 5): -16.0147%
% inhibition apPOL 180' (DRC-1; 180'; concentration 10): -9.688%
% inhibition apPOL 180' (DRC-1; 180'; concentration 20): -2.55%
% inhibition apPOL 180' (DRC-1; 180'; concentration 40): 10.5527%
% inhibition apPOL 180' (DRC-1; 180'; concentration 80): 28.4912%
% inhibition Apo pol 5' (DRC-2, 5', concentration 2.5): 1.37%
% inhibition Apo pol 5' (DRC-2, 5', concentration 5): 6%
% inhibition Apo pol 5' (DRC-2, 5', concentration 10): 18%
% inhibition Apo pol 5' (DRC-2, 5', concentration 20): 30%
% inhibition Apo pol 5' (DRC-2, 5', concentration 40): 42%
% inhibition Apo pol 5' (DRC-2, 5', concentration 80): 54%
% inhibition Apol 40' (DRC-2, 40', concentration 2.5): -6%
% inhibition Apol 40' (DRC-2, 40', concentration 5): -1.68%
% inhibition Apol 40' (DRC-2, 40', concentration 10): 9%
% inhibition Apol 40' (DRC-2, 40', concentration 20): 20%
% inhibition Apol 40' (DRC-2, 40', concentration 40): 37%
% inhibition Apol 40' (DRC-2, 40', concentration 80): 59%
% inhibition ApPOL 90' (DRC-2, 90', concentration 2.5): -8%
% inhibition ApPOL 90' (DRC-2, 90', concentration 5): -7%
% inhibition ApPOL 90' (DRC-2, 90', concentration 10): 1.87%
% inhibition ApPOL 90' (DRC-2, 90', concentration 20): 12%
% inhibition ApPOL 90' (DRC-2, 90', concentration 40): 30%
% inhibition ApPOL 90' (DRC-2, 90', concentration 80): 56%
% inhibition apPOL 180' (DRC-2, 180', concentration 2.5): -10%
% inhibition apPOL 180' (DRC-2, 180', concentration 5): -12%
% inhibition apPOL 180' (DRC-2, 180', concentration 10): -7%
% inhibition apPOL 180' (DRC-2, 180', concentration 20): 5%
% inhibition apPOL 180' (DRC-2, 180', concentration 40): 21%
% inhibition apPOL 180' (DRC-2, 180', concentration 80): 48%
% inhibition Apo pol 5' (DRC-2; 5'; concentration 20): 30%
% inhibition ApPOL 90' (DRC-2; 90'; concentration 5): -7%
% inhibition ApPOL 90' (DRC-2; 90'; concentration 40): 30%
% inhibition apPOL 180' (DRC-2; 180'; concentration 10): -7%
DNA Pol [2]: 48

CC(=O)OCC1=C(C(=O)O)N2C(=O)[C@@H](NC(=O)Cc3cccs3)[C@H]2SC1 [Molecule 73]
IC50 [3]: 16.6 µM

Cc1cccc(NC(=O)Cn2ccc3c(=O)[nH]ccc32)c1C [Molecule 11]
IC50 [3]: 7.57 µM

CC(C)(C)OC(=O)COc1ccc2cc(-c3ccccc3)c(=O)oc2c1 [Molecule 81]
IC50 [3]: 35 µM

O=C(O)c1c(F)c(F)c(-c2c(F)c(F)c(C(=O)O)c(F)c2F)c(F)c1F [KU0008974]
DNA Pol [1]: 36
% inhibition Apo pol 10' (DRC-1; 10'; concentration 2.5): 9.435%
% inhibition Apo pol 10' (DRC-1; 10'; concentration 5): 13.4595%
% inhibition Apo pol 10' (DRC-1; 10'; concentration 10): 21.422%
% inhibition Apo pol 10' (DRC-1; 10'; concentration 20): 42.0339%
% inhibition Apo pol 10' (DRC-1; 10'; concentration 40): 61.4201%
% inhibition Apo pol 10' (DRC-1; 10'; concentration 80): 59.9111%
% inhibition Apol 90' (DRC-1; 90'; concentration 2.5): 3.377%
% inhibition Apol 90' (DRC-1; 90'; concentration 5): 7.4359%
% inhibition Apol 90' (DRC-1; 90'; concentration 10): 14.2426%
% inhibition Apol 90' (DRC-1; 90'; concentration 20): 33.67%
% inhibition Apol 90' (DRC-1; 90'; concentration 40): 52.8962%
% inhibition Apol 90' (DRC-1; 90'; concentration 80): 50.0149%
% inhibition apPOL 180' (DRC-1; 180'; concentration 2.5): -2.039%
% inhibition apPOL 180' (DRC-1; 180'; concentration 5): 0.5684%
% inhibition apPOL 180' (DRC-1; 180'; concentration 10): 7.634%
% inhibition apPOL 180' (DRC-1; 180'; concentration 20): 22.5458%
% inhibition apPOL 180' (DRC-1; 180'; concentration 40): 40.2712%
% inhibition apPOL 180' (DRC-1; 180'; concentration 80): 38.6937%
% inhibition Apo pol 5' (DRC-2, 5', concentration 2.5): 4%
% inhibition Apo pol 5' (DRC-2, 5', concentration 5): 5%
% inhibition Apo pol 5' (DRC-2, 5', concentration 10): 17%
% inhibition Apo pol 5' (DRC-2, 5', concentration 20): 29%
% inhibition Apo pol 5' (DRC-2, 5', concentration 40): 17%
% inhibition Apo pol 5' (DRC-2, 5', concentration 80): 35%
% inhibition Apol 40' (DRC-2, 40', concentration 2.5): 5%
% inhibition Apol 40' (DRC-2, 40', concentration 5): 9%
% inhibition Apol 40' (DRC-2, 40', concentration 10): 23%
% inhibition Apol 40' (DRC-2, 40', concentration 20): 41%
% inhibition Apol 40' (DRC-2, 40', concentration 40): 20%
% inhibition Apol 40' (DRC-2, 40', concentration 80): 47%
% inhibition ApPOL 90' (DRC-2, 90', concentration 2.5): 2.67%
% inhibition ApPOL 90' (DRC-2, 90', concentration 5): 7.58%
% inhibition ApPOL 90' (DRC-2, 90', concentration 10): 21%
% inhibition ApPOL 90' (DRC-2, 90', concentration 20): 39%
% inhibition ApPOL 90' (DRC-2, 90', concentration 40): 19%
% inhibition ApPOL 90' (DRC-2, 90', concentration 80): 47%
% inhibition apPOL 180' (DRC-2, 180', concentration 2.5): -4%
% inhibition apPOL 180' (DRC-2, 180', concentration 5): -1%
% inhibition apPOL 180' (DRC-2, 180', concentration 10): 12%
% inhibition apPOL 180' (DRC-2, 180', concentration 20): 30%
% inhibition apPOL 180' (DRC-2, 180', concentration 40): 14%
% inhibition apPOL 180' (DRC-2, 180', concentration 80): 40%
% inhibition Apo pol 5' (DRC-2; 5'; concentration 5): 5%
% inhibition Apo pol 5' (DRC-2; 5'; concentration 10): 17%
% inhibition Apo pol 5' (DRC-2; 5'; concentration 40): 17%
% inhibition Apol 40' (DRC-2; 40'; concentration 2.5): 5%
% inhibition Apol 40' (DRC-2; 40'; concentration 80): 47%
% inhibition ApPOL 90' (DRC-2; 90'; concentration 80): 47%
DNA Pol [2]: 36

Cc1nn(CC(=O)NCCSCc2ccco2)c(C)c1Br [KU0267182]
DNA Pol [1]: 72
% inhibition Apo pol 10' (DRC-1; 10'; concentration 2.5): 1.812%
% inhibition Apo pol 10' (DRC-1; 10'; concentration 5): 6.711%
% inhibition Apo pol 10' (DRC-1; 10'; concentration 10): 15.4752%
% inhibition Apo pol 10' (DRC-1; 10'; concentration 20): 17.8463%
% inhibition Apo pol 10' (DRC-1; 10'; concentration 40): 47.0773%
% inhibition Apo pol 10' (DRC-1; 10'; concentration 80): 72.2462%
% inhibition Apol 90' (DRC-1; 90'; concentration 2.5): -1.178%
% inhibition Apol 90' (DRC-1; 90'; concentration 5): 2.416%
% inhibition Apol 90' (DRC-1; 90'; concentration 10): 7.223%
% inhibition Apol 90' (DRC-1; 90'; concentration 20): 9.063%
% inhibition Apol 90' (DRC-1; 90'; concentration 40): 29.9709%
% inhibition Apol 90' (DRC-1; 90'; concentration 80): 56.479%
% inhibition apPOL 180' (DRC-1; 180'; concentration 2.5): -4.52%
% inhibition apPOL 180' (DRC-1; 180'; concentration 5): -1.314%
% inhibition apPOL 180' (DRC-1; 180'; concentration 10): 2.547%
% inhibition apPOL 180' (DRC-1; 180'; concentration 20): 1.732%
% inhibition apPOL 180' (DRC-1; 180'; concentration 40): 16.5888%
% inhibition apPOL 180' (DRC-1; 180'; concentration 80): 39.2205%
% inhibition Apo pol 5' (DRC-2, 5', concentration 2.5): 6%
% inhibition Apo pol 5' (DRC-2, 5', concentration 5): 7.46%
% inhibition Apo pol 5' (DRC-2, 5', concentration 10): 16%
% inhibition Apo pol 5' (DRC-2, 5', concentration 20): 23%
% inhibition Apo pol 5' (DRC-2, 5', concentration 40): 43%
% inhibition Apo pol 5' (DRC-2, 5', concentration 80): 55%
% inhibition Apol 40' (DRC-2, 40', concentration 2.5): 7.41%
% inhibition Apol 40' (DRC-2, 40', concentration 5): 7%
% inhibition Apol 40' (DRC-2, 40', concentration 10): 15%
% inhibition Apol 40' (DRC-2, 40', concentration 20): 21%
% inhibition Apol 40' (DRC-2, 40', concentration 40): 45%
% inhibition Apol 40' (DRC-2, 40', concentration 80): 64%
% inhibition ApPOL 90' (DRC-2, 90', concentration 2.5): 6%
% inhibition ApPOL 90' (DRC-2, 90', concentration 5): 4%
% inhibition ApPOL 90' (DRC-2, 90', concentration 10): 12%
% inhibition ApPOL 90' (DRC-2, 90', concentration 20): 16%
% inhibition ApPOL 90' (DRC-2, 90', concentration 40): 39%
% inhibition ApPOL 90' (DRC-2, 90', concentration 80): 63%
% inhibition apPOL 180' (DRC-2, 180', concentration 2.5): 0.763%
% inhibition apPOL 180' (DRC-2, 180', concentration 5): -0.774%
% inhibition apPOL 180' (DRC-2, 180', concentration 10): 3.79%
% inhibition apPOL 180' (DRC-2, 180', concentration 20): 7.41%
% inhibition apPOL 180' (DRC-2, 180', concentration 40): 27%
% inhibition apPOL 180' (DRC-2, 180', concentration 80): 55%
% inhibition Apo pol 5' (DRC-2; 5'; concentration 2.5): 6%
% inhibition Apo pol 5' (DRC-2; 5'; concentration 10): 16%
% inhibition Apo pol 5' (DRC-2; 5'; concentration 80): 55%
% inhibition Apol 40' (DRC-2; 40'; concentration 2.5): 7.41%
% inhibition ApPOL 90' (DRC-2; 90'; concentration 2.5): 6%
% inhibition ApPOL 90' (DRC-2; 90'; concentration 20): 16%
% inhibition apPOL 180' (DRC-2; 180'; concentration 20): 7.41%
% inhibition apPOL 180' (DRC-2; 180'; concentration 80): 55%
DNA Pol [2]: 72
